Test results from patent US7456177B2, “Heteroaryl fused azapolycyclic compounds” (Pfizer Inc., priority 2003, dated 2008).

Row | melting point [°C] | Structure (SMILES)
1 | 320 to 322 | Cn1nc2c3c(cccc3c1=O)C1CNCC2C1 (centres unmarked)
2 | 260 to 266 | CN1CC2Cc3cccnc3C(C2)C1.Cl.Cl (centres unmarked)
